Assay: excess molar enthalpy (molar enthalpy of mixing); xn = mol fraction of the nth substance listed
Details: 101.3 kPa, Liquid, Flow calorimetry

CC(=O)c1ccccc1 [acetophenone] + C1CCCCC1
excess molar enthalpy [kcal/mol]
Details	298.2 K	313.2 K	328.2 K	338.2 K	348.2 K
x1 = 0.1004	0.18	0.19	0.193	0.195	0.196
x1 = 0.1999	0.264	0.285	0.295	0.302	0.304
x1 = 0.2999	0.305	0.336	0.353	0.362	0.364
x1 = 0.3499	0.317	0.35	0.368	0.377	0.379
x1 = 0.4002	0.323	0.356	0.374	0.385	0.388
x1 = 0.4497	0.323	0.357	0.375	0.386	0.387
x1 = 0.4996	0.32	0.352	0.37	0.378	0.382
x1 = 0.5498	0.312	0.343	0.359	0.367	0.371
x1 = 0.6005	0.299	0.327	0.341	0.349	0.353
x1 = 0.6503	0.282	0.307	0.319	0.326	0.329
x1 = 0.7004	0.261	0.28	0.289	0.296	0.299
x1 = 0.8005	0.2	0.209	0.213	0.218	0.221
x1 = 0.8995	0.114	0.117	0.118	0.121	0.122

CC(=O)c1ccccc1 [acetophenone] + CC(C)CO
excess molar enthalpy [kcal/mol]
Details	298.2 K	313.2 K	328.2 K	338.2 K	348.2 K
x1 = 0.1005	0.166	0.192	0.219	0.223	0.225
x1 = 0.201	0.263	0.312	0.356	0.367	0.369
x1 = 0.301	0.327	0.39	0.449	0.46	0.462
x1 = 0.3512	0.346	0.414	0.476	0.488	0.491
x1 = 0.4014	0.361	0.432	0.494	0.507	0.509
x1 = 0.4516	0.371	0.443	0.504	0.516	0.519
x1 = 0.5017	0.375	0.446	0.505	0.516	0.52
x1 = 0.5518	0.373	0.443	0.498	0.508	0.51
x1 = 0.6016	0.366	0.432	0.482	0.489	0.492
x1 = 0.6513	0.354	0.415	0.456	0.463	0.467
x1 = 0.7008	0.335	0.389	0.423	0.426	0.428
x1 = 0.8016	0.271	0.305	0.324	0.325	0.329
x1 = 0.901	0.164	0.177	0.183	0.185	0.187

CC(=O)c1ccccc1 [acetophenone] + CCCCCC
excess molar enthalpy [kcal/mol]
Details	298.2 K	313.2 K	328.2 K
x1 = 0.0997	0.169	0.173	0.175
x1 = 0.2	0.263	0.277	0.285
x1 = 0.2994	0.306	0.329	0.342
x1 = 0.3503	0.317	0.343	0.357
x1 = 0.4006	0.321	0.349	0.365
x1 = 0.4503	0.321	0.35	0.367
x1 = 0.4995	0.316	0.346	0.363
x1 = 0.5494	0.308	0.336	0.353
x1 = 0.5999	0.295	0.319	0.337
x1 = 0.6499	0.278	0.293	0.313
x1 = 0.7005	0.257	0.265	0.277
x1 = 0.8	0.2	0.203	0.207
x1 = 0.8995	0.113	0.115	0.117
